Source: ChEMBL document CHEMBL1140579, “Synthesis of andrographolide derivatives and their TNF-alpha and IL-6 expression inhibitory activities” (2007)

Legend:
Details in all cases: J774.A1, 24 h
[1] = tested on: J774.A1; assay: IL6 secretion in mouse J774A.1 cells at 20 uM after 24 hrs by ELISA
[2] = tested on: J774.A1; assay: Inhibition of LPS-induced IL6 secretion in mouse J774A.1 cells at 20 uM after 24 hrs by ELISA; values are per cent of control
[3] = tested on: J774.A1; assay: Inhibition of TNFalpha secretion in mouse J774A.1 cells at 20 uM after 24 hrs by ELISA; values are per cent of control
[4] = tested on: J774.A1; assay: Inhibition of LPS-induced TNFalpha secretion in mouse J774A.1 cells at 20 uM after 24 hrs by ELISA; values are per cent of control

With C[C@@]12COS(=O)O[C@@H]1CC[C@@]1(C)C3CC(C4=CCOC4=O)O[C@]3(C)CC[C@H]21 (stereo partly drawn) the % of control at 20 µM [1] was 79.7%, the level, % of control at 20 µM [2] was 208% and the level, % of control at 20 µM [3] was 61.8%. It also gave a level, % of control at 20 µM [4] of 231%.
Molecule CCCCCC(=O)O[C@@H]1CC[C@@]2(C)C3CC(C4=CCOC4=O)O[C@]3(C)CC[C@@H]2[C@]1(C)CO (stereo partly drawn) has a % of control at 20 µM [1] of 69.8%, a level, % of control at 20 µM [2] of 102% and a level, % of control at 20 µM [3] of 44.4%. It also gave a level, % of control at 20 µM [4] of 106%.
For C=C1CC[C@@H]2[C@](C)(CO)[C@H](O)CC[C@@]2(C)[C@@H]1CC(OC(=O)CC)C1=CCOC1=O (stereo partly drawn), the % of control at 20 µM [1] was 82.6%, the level, % of control at 20 µM [2] was 74.7% and the level, % of control at 20 µM [3] was 70%. It also gave a level, % of control at 20 µM [4] of 96.9%.
C=C1CC[C@@H]2[C@](C)(CO)[C@H](O)CC[C@@]2(C)[C@@H]1CC(OC(=O)CCCCC)C1=CCOC1=O (stereo partly drawn) showed a % of control at 20 µM [1] of 82.9%, a level, % of control at 20 µM [2] of 46.6% and a level, % of control at 20 µM [3] of 79.6%. For the same molecule, the level, % of control at 20 µM [4] was 76%.
With C=C1CC[C@@H]2[C@](C)(CO)[C@H](O)CC[C@@]2(C)[C@@H]1CC(OC(=O)c1ccccc1)C1=CCOC1=O (stereo partly drawn) the % of control at 20 µM [1] was 82%, the level, % of control at 20 µM [2] was 37.5% and the level, % of control at 20 µM [3] was 92.9%. The level, % of control at 20 µM [4] was 60.8%.
Molecule C=C1CC[C@@H]2[C@](C)(CO)[C@H](O)CC[C@@]2(C)[C@@H]1CC(OC(=O)c1ccc(C)cc1)C1=CCOC1=O (stereo partly drawn) has a % of control at 20 µM [1] of 128%, a level, % of control at 20 µM [2] of 32.1% and a level, % of control at 20 µM [3] of 152%. For the same molecule, the level, % of control at 20 µM [4] was 41.6%.
For C=C1CC[C@@H]2[C@](C)(CO)[C@H](O)CC[C@@]2(C)[C@@H]1CC(OC(=O)C/C=C/c1ccc2c(c1)OCO2)C1=CCOC1=O (stereo partly drawn), the % of control at 20 µM [1] was 96%, the level, % of control at 20 µM [2] was 56.9% and the level, % of control at 20 µM [3] was 149%. It also gave a level, % of control at 20 µM [4] of 61%.
In the case of CCC(=O)OC[C@@]1(C)[C@H]2CC[C@@]3(C)OC(C4=CCOC4=O)CC3[C@]2(C)CC[C@H]1OC(=O)CC (stereo partly drawn), the % of control at 20 µM [1] was 60.5%, the level, % of control at 20 µM [2] was 110% and the level, % of control at 20 µM [3] was 82.8%. It also gave a level, % of control at 20 µM [4] of 115%.
Molecule C[C@]1(COC(=O)C(=O)CCC(=O)O)[C@H]2CC[C@@]3(C)OC(C4=CCOC4=O)CC3[C@]2(C)CC[C@H]1OC(=O)C(=O)CCC(=O)O (stereo partly drawn) has a % of control at 20 µM [1] of 55%, a level, % of control at 20 µM [2] of 114% and a level, % of control at 20 µM [3] of 81.7%. It also gave a level, % of control at 20 µM [4] of 129%.
In the case of C=C1CC[C@@H]2[C@](C)(CO)[C@H](O)CC[C@@]2(C)[C@@H]1CC(OC(C)=O)C1=CCOC1=O (stereo partly drawn), the % of control at 20 µM [1] was 95.1%, the level, % of control at 20 µM [2] was 44.7% and the level, % of control at 20 µM [3] was 107%. The level, % of control at 20 µM [4] was 62.7%.
CCCCCC(=O)OC[C@@]1(C)[C@H]2CC[C@@]3(C)OC(C4=CCOC4=O)CC3[C@]2(C)CC[C@H]1OC(=O)CCCCC (stereo partly drawn) showed a % of control at 20 µM [1] of 31.4%, a level, % of control at 20 µM [2] of 85.2% and a level, % of control at 20 µM [3] of 35.7%. The level, % of control at 20 µM [4] was 43.8%.
Work on C=C1CC[C@@H]2[C@](C)(CO)[C@H](O)CC[C@@]2(C)[C@@H]1CC(OC(=O)c1ccc([N+](=O)[O-])cc1)C1=CCOC1=O (stereo partly drawn) yielded a % of control at 20 µM [1] of 58.6%, a level, % of control at 20 µM [2] of 29.2% and a level, % of control at 20 µM [3] of 65.8%. For the same molecule, the level, % of control at 20 µM [4] was 60%.
C[C@]1(COC=O)[C@H]2CC[C@@]3(C)OC(C4=CCOC4=O)CC3[C@]2(C)CC[C@H]1OC(=O)c1ccccc1 (stereo partly drawn) was tested, and the % of control at 20 µM [1] was 27.7%, the level, % of control at 20 µM [2] was 85.7% and the level, % of control at 20 µM [3] was 28.5%. For the same molecule, the level, % of control at 20 µM [4] was 36.5%.
C=C1CC[C@@H]2[C@](C)(CO)[C@H](O)CC[C@@]2(C)[C@@H]1CC(OC(=O)c1cc2c(cc1[N+](=O)[O-])OCO2)C1=CCOC1=O (stereo partly drawn) gave a % of control at 20 µM [1] of 70.1%, a level, % of control at 20 µM [2] of 44.6% and a level, % of control at 20 µM [3] of 115%. For the same molecule, the level, % of control at 20 µM [4] was 94.4%.
Molecule CC(=O)OC[C@@]1(C)[C@H]2CC[C@@]3(C)OC(C4=CCOC4=O)CC3[C@]2(C)CC[C@H]1OC(C)=O (stereo partly drawn) has a % of control at 20 µM [1] of 72.9%, a level, % of control at 20 µM [2] of 150% and a level, % of control at 20 µM [3] of 80%. It also gave a level, % of control at 20 µM [4] of 99.4%.
Molecule C[C@]1(COC(=O)c2ccccc2)[C@H]2CC[C@@]3(C)OC(C4=CCOC4=O)CC3[C@]2(C)CC[C@H]1OC(=O)c1ccccc1 (stereo partly drawn) has a % of control at 20 µM [1] of 48.2%, a level, % of control at 20 µM [2] of 107% and a level, % of control at 20 µM [3] of 204%. It also gave a level, % of control at 20 µM [4] of 294%.
C=C1CC[C@@H]2[C@](C)(CO)[C@H](O)CC[C@@]2(C)[C@@H]1C/C=C1/C(=O)OC[C@H]1O [ANDROGRAPHOLIDE] was tested, and the % of control at 20 µM [1] was 49.2%, the level, % of control at 20 µM [2] was 56% and the level, % of control at 20 µM [3] was 63.9%. For the same molecule, the level, % of control at 20 µM [4] was 62.5%.
